Data as given in patent US8809315B2, “Combination medicaments for treating bacterial infections” (Basilea Pharmaceutica AG, priority 2007, dated 2014).

Key:
Test in all cases: MIC, broth microdilution (NCCLS M7-A6)
Assay type in all cases: cell-based
[1] = system: Achromobacter (formerly Alcaligenes) xylosoxidans QK3/96 [DSM 18991]; conditions: A. xylosoxidans QK3/96; combinations of equal weights; IsoSensiTest Broth + 16 μg/mL 2,2'-bipyridyl
Description: (§1) Antimicrobial activity of the compounds and of their combinations is determined against a selection of organisms according to standard procedures described by the National Committee for Clinical Laboratory Standards (NCCLS document M7-A6). […] In all cases the final concentration of DMSO incubated with the bacteria is less than or equal to 1%. […] Plates are incubated overnight at an appropriate temperature (30° C. or 37° C.) and optical densities assessed by eye. The MIC value is defined as the lowest compound concentration completely inhibiting visible growth of the test organism. Synergism tests are performed under the same conditions as described above but with two antimicrobial agents dispensed in checkerboard format [Isenberg H D (1992) Synergism testing: Broth microdilution checkerboard and broth macrodilution methods. In: Clinical Microbiology Procedures Manual vol. 1. Washington, D.C.: American Society for Microbiology. […] The strains used are: Pseudomonas aeruginosa 6067 (Accession number at the DSMZDeutsche Sammlung von Mikroorganismen and Zellkulturen GmbH, Inhoffenstr. 7 B, D-38124 Braunschweig: […] (DSM 18988), Achromobacter (formerly Alcaligenes) xylosoxidans QK3/96 (DSM 18991), Enterobacter aerogenes Zayakosky 5 (DSM 18992).

[2] = system: Enterobacter aerogenes Zayakosky 5 [DSM 18992]; conditions: E. aerogenes Zayakosky 5; combinations of equal weights; IsoSensiTest Broth + 16 μg/mL 2,2'-bipyridyl
Description: as §1

[3] = system: Pseudomonas aeruginosa (67/2B)2R.A. [DSM 18988]; conditions: P. aeruginosa (67/2B)2R.A.; combinations of equal weights; IsoSensiTest Broth + 16 μg/mL 2,2'-bipyridyl
Description: as §1

[4] = system: Pseudomonas aeruginosa 6067 [DSM 18987]; conditions: P. aeruginosa 6067; combinations of equal weights; IsoSensiTest Broth + 16 μg/mL 2,2'-bipyridyl
Description: as §1

| SMILES | Minimum Inhibitory Concentration [1] | Minimum Inhibitory Concentration [2] | Minimum Inhibitory Concentration [3] | Minimum Inhibitory Concentration [4] |
| --- | --- | --- | --- | --- |
| CC1(C)[C@H](NC(=O)/C(=N\OCc2cc(=O)c(O)cn2O)c2csc(N)n2)C(=O)N1OS(=O)(=O)O [Compound of formula I, (3S)-3-{(2Z)-2-(2-amino(1,3-thiazol-4-yl))-3-[(1,5-dihydroxy-4-oxo(2-hydropyridyl))methoxy]-3-azaprop-2-enoylamino}-4,4-dimethyl-2-oxoazetidinyl hydroxysulfonate] | 16 mg/L | 16 mg/L | 32 mg/L | 16 mg/L |
| C[C@@H](O)[C@H]1C(=O)N2C(C(=O)O)=C(S[C@@H]3CN[C@H](C(=O)N(C)C)C3)[C@H](C)[C@H]12 [Meropenem] | 16 mg/L | 16 mg/L | 4 mg/L | 16 mg/L |
| C[C@H]1[C@H](NC(=O)/C(=N\OCc2cc(=O)c(O)cn2O)c2cccs2)C(=O)N1S(=O)(=O)O [Compound A, (3S)-trans-3-[(E)-2-(2-thienyl)-2-{(1,5-dihydroxy-4-pyridon-2-ylmethoxy)imino}-acetamido]-4-methyl-2-oxazetidine-1-sulfonic acid] | >64 mg/L | >64 mg/L | >64 mg/L | >64 mg/L |
| C[C@H]1[C@H](NC(=O)/C(=N/OCc2cc(=O)c(O)cn2O)c2cccs2)C(=O)N1S(=O)(=O)O [Compound B] | >64 mg/L | >64 mg/L | >64 mg/L | >64 mg/L |
| C[C@@H](O)[C@H]1C(=O)N2C(C(=O)O)=C(S[C@@H]3CN[C@H](C(=O)Nc4cccc(C(=O)O)c4)C3)[C@H](C)[C@H]12 [Ertapenem] | >32 mg/L | >32 mg/L | >32 mg/L | >32 mg/L |
| C[C@H]1[C@H](NC(=O)/C(=N\OC(C)(C)C(=O)O)c2csc(N)n2)C(=O)N1S(=O)(=O)O [Aztreonam, (Z)-2-[[[(2-amino-4-thiazolyl)[[(2S,3S)-2-methyl-4-oxo-1-sulfo-3-azetidinyl]-carbamoyl]methylene]amino]oxy]-2-methylpropionic acid] | >64 mg/L | 64 mg/L | 4 mg/L | 16 mg/L |
| C[C@@H](O)[C@H]1C(=O)N2C(C(=O)O)=C(S[C@@H]3CN[C@H](CNS(N)(=O)=O)C3)[C@H](C)[C@H]12 [Doripenem] | 16 mg/L | 8 mg/L | 4 mg/L | 16 mg/L |
| C[C@@H](O)[C@H]1C(=O)N2C(C(=O)O)=C(SCCN=CN)C[C@H]12 [Imipenem] | 4 mg/L | 32 mg/L | 16 mg/L | 4 mg/L |
